From article PMC8116058, “De novo macrocyclic peptides dissect energy coupling of a heterodimeric ABC transporter by multimode allosteric inhibition” (eLife, 2021)
Positions of bridges follow the written chain, without caps; N, C: chain ends. Non-standard residues stand in square brackets, D forms with d. Residues, ends and D or L forms follow the SMILES beside them. *: point of attachment. 5FAM = O=C1OC2(c3ccc(O)cc3Oc3cc(O)ccc32)c2ccc(C(=O)*)cc21; βAla = NCCC(=O)O

Legend:
[1] = test system: TmrAB in liposomes; assay: Filter-based transport assay, inhibition of C4F translocation; assay type: biochemical, Thermus thermophilus; conditions: C4F 3 µM, CP^F 1 µM, 15 min 45°C; for Transported C4F peptide: TmrAB 0.4 µM
Excerpt: In order to investigate the functional impact of CPs, we examined the effect of the CPs on ATP hydrolysis and substrate transport of TmrAB (Figure 3A). We reconstituted TmrAB in liposomes and first assayed the ATPase activity. […] We next set out to investigate peptide transport by TmrAB using a filter-based transport assay. To investigate whether CPs are recognized as substrates by TmrAB, we added fluorescein-labeled CP^Fs and examined ATP-dependent translocation. In contrast to the linear substrate peptide C4F, none of the CP^Fs were transported by TmrAB (Figure 3C). Next, we examined ATP-dependent transport of C4F peptides in the presence and absence of the different CPs.
Figure 3. CP^Fs are potent inhibitors of ATP turnover and substrate transport. (A) Experimental scheme of ATP hydrolysis and peptide transport by TmrAB. (B) CP^Fs inhibit ATP hydrolysis. TmrAB in liposomes (100 nM) was incubated with ATP (2 mM, traced with [γ^32P]-ATP), and MgCl2 (5 mM) in the presence and absence of CP^Fs (1 µM) for 10 min at 45°C. Autohydrolysis was determined in the absence of TmrAB, and background turnover was conducted in the presence of EDTA (10 mM). Release of [γ^32P] was quantified by thin layer chromatography. (C) CP^Fs are not transported by TmrAB. TmrAB (0.4 µM) reconstituted in liposomes was incubated with C4F peptide (3 µM) or CP^Fs (1 µM) in the presence of ATP/ADP (3 mM) and MgCl2 (5 mM) for 5 min at 45°C. Since CP^Fs were dissolved in maximal 0.5% (v/v) of DMSO, C4F plus 0.5% DMSO served as control. Proteoliposomes were washed on filter plates, and transported peptides were quantified at λex/em = 485/520 nm. (D) Inhibition of substrate translocation. TmrAB in liposomes (0.4 µM) were incubated with C4F peptide (3 µM), ATP/ADP (3 mM), and MgCl2 (5 mM) in the presence and absence of CP^Fs (1 µM) for 15 min at 45°C. Transported peptides were quantified as described in (C). In (B–C), mean values ± SD (n = 3) are shown. Figure 3—source data 1. Source data for Figure 3.
TmrAB in liposomes (0.4 µM) were incubated with ATP/ADP (3 mM), MgCl2 (5 mM), C4F peptide (3 µM), and CP^Fs (1 µM) for 15 min at 45°C. […] Proteoliposomes were solubilized by adding SDS (1% [v/v]) in transport buffer for 10 min at 20°C. Transported peptides were quantified at λex/em = 485/520 nm using a microplate reader (CLARIOstar, BMG LABTECH).

[2] = molecular target: outward-facing TmrA^EQB trapped with Mg-ATP (Thermus thermophilus, UniProt Q72J04+Q72J05, E523Q); assay: Conformation-specific binding by fluorescence anisotropy, OF conformer; conditions: fluorescence polarization, IF TmrAB vs ATP-trapped OF TmrA^EQB
Excerpt: ABC transport complexes such as TmrAB run through multiple conformational states along the ATP hydrolysis cycle to drive unidirectional substrate transport ([Hofmann et al., 2019]; [Stefan et al., 2020]). Within the substrate translocation cycle, two major conformers, inward-facing (IF) and outward-facing (OF), were identified. To investigate whether CPs favor one of these conformers, we probed the binding of CP^Fs by fluorescence polarization analysis. […] In the latter case, the interaction studies were performed immediately after the IF-to-OF switch by incubation with ATP for 5 min at 45°C. To exclude an OF-to-IF return (τ1/2 of 25 min) ([Stefan et al., 2020]), the fluorescence anisotropy was recorded only within the first minute of incubation.
Figure 5. […] Immediately after, the fluorescence anisotropy was assayed at λex/em = 485/520 nm. The difference in fluorescence polarization was normalized to free and fully bound CP^F. Data were fitted by a one-site binding model. […] Occluded nucleotides were analyzed by thin layer chromatography and autoradiography. […] (D) Stably occluded nucleotides, [α^32P]-ATP and [α^32P]-ADP, were quantified by autoradiography. […] The difference in fluorescence polarization was normalized to unbound (0%) and 100% bound CP^F. Data were fitted by a one-site binding model. Fluorescence anisotropy was recorded at λex/em = 485/520 nm. […]

[3] = ADP 3 mM (background), without CP 0.01

| SMILES | Transported C4F peptide [1, 3] [µmol·g/min] | Transported C4F peptide ([1]; ATP 3 mM, without CP 1.66) [µmol·g/min] | Effect on ATP-dependent C4F peptide translocation [1] | Conformational preference of binding, IF vs OF [2] |
| --- | --- | --- | --- | --- |
| CC[C@H](C)[C@@H]1NC(=O)[C@H]([C@@H](C)O)NC(=O)[C@H](CC(C)C)NC(=O)[C@H](Cc2c[nH]c3ccccc23)NC(=O)[C@H](Cc2ccccc2)NC(=O)[C@H](CC(N)=O)NC(=O)[C@H](CCC(=O)O)NC(=O)[C@H](CC(C)C)NC(=O)[C@H](CS)NC(=O)[C@H](Cc2c[nH]cn2)NC(=O)[C@H](CO)NC(=O)[C@@H](Cc2ccc(O)cc2)NC(=O)CSC[C@@H](C(=O)NCC(=O)N[C@@H](CO)C(=O)NCCC(=O)NCCC(=O)N[C@@H](CCCNC(=N)N)C(=O)N[C@@H](CCCCNC(=O)c2ccc3c(c2)C(=O)OC32c3ccc(O)cc3Oc3cc(O)ccc32)C(N)=O)NC(=O)[C@H](CC(C)C)NC1=O [CP6] ({CH2CO}-[dY]SHCLENFWLTILCGS[βAla][βAla]RK(5FAM)-NH2; thioether N-14) | 0.37 | 0.29 | completely blocked peptide translocation | – |
| CC(C)C[C@@H]1NC(=O)[C@H](Cc2ccccc2)NC(=O)CNC(=O)[C@H](CO)NC(=O)[C@H](Cc2ccccc2)NC(=O)[C@H](CC(=O)O)NC(=O)[C@@H]2CCCN2C(=O)[C@H]([C@@H](C)O)NC(=O)[C@@H](Cc2ccc(O)cc2)NC(=O)CSC[C@@H](C(=O)NCC(=O)N[C@@H](CO)C(=O)NCCC(=O)NCCC(=O)N[C@@H](CCCNC(=N)N)C(=O)N[C@@H](CCCCNC(=O)c2ccc3c(c2)C(=O)OC32c3ccc(O)cc3Oc3cc(O)ccc32)C(N)=O)NC(=O)[C@H](C)NC(=O)[C@H](CC(N)=O)NC(=O)[C@H](CCCNC(=N)N)NC(=O)[C@H](CC(C)C)NC(=O)[C@H](Cc2ccccc2)NC(=O)[C@H](C)NC1=O [CP12] ({CH2CO}-[dY]TPDFSGFLAFLRNACGS[βAla][βAla]RK(5FAM)-NH2; thioether N-16) | 0.41 | 0.41 | completely blocked peptide translocation | – |
| CC[C@H](C)[C@@H]1NC(=O)[C@H](Cc2c[nH]c3ccccc23)NC(=O)[C@H](CC(N)=O)NC(=O)[C@H](C)NC(=O)[C@H](CO)NC(=O)[C@@H]2CCCN2C(=O)[C@H](CC(=O)O)NC(=O)[C@@H](Cc2ccc(O)cc2)NC(=O)CSC[C@@H](C(=O)NCC(=O)N[C@@H](CO)C(=O)NCCC(=O)NCCC(=O)N[C@@H](CCCNC(=N)N)C(=O)N[C@@H](CCCCNC(=O)c2ccc3c(c2)C(=O)OC32c3ccc(O)cc3Oc3cc(O)ccc32)C(N)=O)NC(=O)[C@H]([C@@H](C)O)NC(=O)[C@H](CC(C)C)NC(=O)[C@H](CC(C)C)NC(=O)[C@H](C(C)C)NC(=O)[C@H](CC(C)C)NC1=O [CP13] ({CH2CO}-[dY]DPSANWILVLLTCGS[βAla][βAla]RK(5FAM)-NH2; thioether N-14; C-terminus assumed) | 0.25 | 0.41 | only caused a partial inhibition | preference for the OF conformer |
| CC(C)[C@@H]1NC(=O)[C@H](Cc2ccccc2)NC(=O)[C@@H]2CCCN2C(=O)[C@H](CC(N)=O)NC(=O)[C@H](Cc2c[nH]c3ccccc23)NC(=O)[C@H](C(C)C)NC(=O)[C@H](Cc2ccc(O)cc2)NC(=O)[C@H](Cc2ccccc2)NC(=O)[C@@H](Cc2ccc(O)cc2)NC(=O)CSC[C@@H](C(=O)NCC(=O)N[C@@H](CO)C(=O)NCCC(=O)NCCC(=O)N[C@@H](CCCNC(=N)N)C(=O)N[C@@H](CCCCNC(=O)c2ccc3c(c2)C(=O)OC32c3ccc(O)cc3Oc3cc(O)ccc32)C(N)=O)NC(=O)[C@H](CCCCN)NC(=O)[C@H](Cc2ccccc2)NC1=O [CP14] ({CH2CO}-[dY]FYVWNPFVFKCGS[βAla][βAla]RK(5FAM)-NH2; thioether N-12; C-terminus assumed) | 0.15 | 0.41 | only caused a partial inhibition | preference for the OF conformer |
